Measurements from US20250340537A1, “PHARMACEUTICALLY ACTIVE COMPOUNDS, COMPOSITIONS, AND METHODS FOR MODULATING PENDRIN” (ARBORMED Co., Ltd., priority 2022, published 2025).
pEC50: −log10 of the molar value.

molecular target: T1, H723R-pendrin (Homo sapiens, UniProt O43511, H723R); assay: YFP fluorescence quenching assay (Cl−/I− exchange activity of pendrin); type: cell-based; conditions: PANC-1 cells stably expressing human H723R-pendrin and YFP-F46L/H148Q/I152L; compound incubation 20-24 hours; iodide influx
T1 construct: expressed in transfected cells; host or cells: PANC-1
T1 sequence (O43511 1-780 H723R): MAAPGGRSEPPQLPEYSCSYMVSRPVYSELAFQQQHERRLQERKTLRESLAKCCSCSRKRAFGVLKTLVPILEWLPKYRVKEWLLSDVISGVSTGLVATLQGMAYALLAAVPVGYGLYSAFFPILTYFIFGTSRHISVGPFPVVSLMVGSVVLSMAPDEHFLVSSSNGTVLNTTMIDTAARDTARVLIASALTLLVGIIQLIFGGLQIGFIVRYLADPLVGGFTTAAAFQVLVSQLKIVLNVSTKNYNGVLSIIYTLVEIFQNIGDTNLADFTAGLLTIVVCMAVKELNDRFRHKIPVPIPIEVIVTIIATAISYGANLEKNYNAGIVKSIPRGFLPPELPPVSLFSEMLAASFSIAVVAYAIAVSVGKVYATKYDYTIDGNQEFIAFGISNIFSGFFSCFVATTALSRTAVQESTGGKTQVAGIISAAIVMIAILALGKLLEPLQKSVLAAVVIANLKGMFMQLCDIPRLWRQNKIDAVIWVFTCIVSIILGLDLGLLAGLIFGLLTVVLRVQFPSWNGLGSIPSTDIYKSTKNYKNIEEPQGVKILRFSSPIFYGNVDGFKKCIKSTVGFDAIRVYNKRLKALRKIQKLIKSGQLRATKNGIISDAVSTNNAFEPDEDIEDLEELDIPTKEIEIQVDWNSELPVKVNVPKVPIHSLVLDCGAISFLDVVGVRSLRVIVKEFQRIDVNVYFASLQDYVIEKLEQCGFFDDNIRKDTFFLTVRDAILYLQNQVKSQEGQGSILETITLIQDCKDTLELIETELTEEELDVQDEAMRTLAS
From the text: Halide sensor YFP F46L/H148Q/I152L is quenched by halide ion like Iodide. When such YFP is expressed in a cell, it expresses in the cytoplasm.
To measure H723R-PDS activity, PANC-1 cells were stably transfected with halide sensors YFP-F46L/H148Q/I152L and H723R-PDS which has problems with membrane trafficking due to misfolding.
If the cell-treated drug is a corrector for H723R-PDS, H723R-PDS will translocate normally to the plasma membrane.
At this time, when treated with a high-concentration iodide solution outside the cell, iodide enters the cell due to the Cl−/I− exchange activity of pendrin, and the fluorescence of the halide sensor YFP decreases.
PANC-1 cells were cultured in Dulbecco's Modified Eagle's Medium with 10% fetal bovine serum, 2 mM glutamine, 100 units/ml penicillin and 100 µg/ml streptomycin. For high-throughput screening, PANC-1 cells were stably transfected with human H723R-pendrin and halide sensor YFP-F46L/H148Q/I152L.
PANC-1 cells expressing human H723R-pendrin and YFP-F46L/H148Q/I152L were plated in 96-well microplates at a density of 2×10^4 cells per well and grown for 20-24 hours at 37° C. (90% humidity 5% CO2). Then these cells were treated with 50 μl growth medium containing test compounds and incubated for 20-24 hours. For YFP quenching assay, each well of the 96-well plate was washed 2 times with 200 μl of PBS, and it was filled with 50 μl of HEPES-buffered solution (140 mM NaCl, 5 mM KCl, 1 mM MgCl2, 1 mM CaCl2, 10 mM D-glucose, 10 mM HEPES; pH 7.4 with NaOH). After 10 minutes of incubation at 37° C., the 96-well plate was moved on the FLUOstar Omega Microplate Reader (BMG Labtech, Ortenberg, Germany) for a fluorescence assay. Each well was assayed individually for H723R-pendrin mediated I^− influx by recording fluorescence (495±15 nm excitation, 520±20 nm emission) every 400 ms for 1 second (baseline). Then, 50 μL of NaI-substituted HEPES-buffered solution (NaI replacing NaCl) was added using a liquid injector at 1 second and YFP fluorescence was recorded every 400 ms for 10 seconds. The initial iodide influx rate was determined from the initial slope of fluorescence by nonlinear regression, after the infusion of iodide.
It is indicated as EC50 with the following key: A=EC50 less than 5 uM; B=EC50 greater than 5 uM, but less than 10 uM; C=EC50 greater than 10 uM.

`COc1cc(-c2cncc(C3=C(N)N(CC4CCNC4)CC3=O)c2)ccc1O` (centres unmarked) [Compound 90] and `COc1ccc(-c2cncc(C3=C(N)N(CC4CCNC4)CC3=O)c2)cc1OC` (centres unmarked) [Compound 55] cannot be ordered by pEC50: < 5.00 for the first, < 5.00 for the second.

Compared with `NC1=C(c2cncc(-c3ccc(O)c(O)c3)n2)C(=O)CN1c1ccccc1F` [Compound 78], `NC1=C(c2cccc(-c3ccc(O)c(O)c3)n2)C(=O)CN1c1ccccc1F` [Compound 92] is lower in pEC50: > 5.30 for the first, 5.00 to 5.30 for the second.

`COc1ccc(-c2nccc(C3=C(N)N(c4ccccc4F)CC3=O)n2)cc1OC` [Compound 5] and `COc1ccc(-c2ccnc(C3=C(N)N(c4ccccc4F)CC3=O)n2)cc1OC` [Compound 1] cannot be ordered by pEC50: < 5.00 for the first, < 5.00 for the second.

Going from `COc1ccc(-c2cncc(C3=C(N)N(CC4CCCCC4)CC3=O)n2)cc1OC` [Compound 48] to `COc1ccc(-c2cncc(C3=C(N)N(CCC4CCCC4)CC3=O)n2)cc1OC` [Compound 44], the pEC50 rises from < 5.00 to > 5.30.

`COc1ccc(-c2cncc(C3=C(N)N(C4CCCC4)CC3=O)n2)cc1OC` [Compound 14] and `NC1=C(c2cncc(-c3ccc(O)c(OC4COC4)c3)n2)C(=O)CN1C1CCCC1` [Compound 117] fall in the same range of pEC50: 5.00 to 5.30 for the first, 5.00 to 5.30 for the second.

`NC1=C(c2cncc(-c3ccc4nccnc4c3)n2)C(=O)CN1c1ccccc1Cl` [Compound 12] and `NC1=C(c2cncc(-c3ccc4ocnc4c3)n2)C(=O)CN1c1ccccc1Cl` [Compound 11] cannot be ordered by pEC50: < 5.00 for the first, < 5.00 for the second.

`NC1=C(c2ccnc(-c3ccc(O)c(O)c3)n2)C(=O)CN1c1ccccc1Cl` [Compound 114] and `NC1=C(c2ccnc(-c3ccc(O)c(O)c3)n2)C(=O)CN1c1ccccc1F` [Compound 57] cannot be ordered by pEC50: > 5.30 for the first, > 5.30 for the second.

`COc1cc(-c2cncc(C3=C(N)N(CC4CCCC4)CC3=O)c2)ccc1O` [Compound 71] and `COc1cc(-c2cncc(C3=C(N)N(CC4CCOC4)CC3=O)c2)ccc1O` (centres unmarked) [Compound 91] cannot be ordered by pEC50: < 5.00 for the first, < 5.00 for the second.

`NC1=C(c2cncc(-c3ccc(OC(F)(F)F)c(O)c3)n2)C(=O)CN1c1ccccc1Cl` [Compound 31] and `NC1=C(c2cncc(-c3ccc(O)cc3O)n2)C(=O)CN1c1ccccc1Cl` [Compound 30] cannot be ordered by pEC50: < 5.00 for the first, < 5.00 for the second.

`COc1ccc(-c2ccnc(C3=C(N)N(CC4CCOC4)CC3=O)n2)cc1OC` (centres unmarked) [Compound 84] and `COc1ccc(-c2ccnc(C3=C(N)N(CC4CCNC4)CC3=O)n2)cc1OC` (centres unmarked) [Compound 82] cannot be ordered by pEC50: < 5.00 for the first, < 5.00 for the second.

`NC1=C(c2cncc(-c3ccc4c(c3)OCO4)n2)C(=O)CN1c1ccccc1Cl` [Compound 10] and `NC1=C(c2cnc(-c3ccc(O)c(O)c3)cn2)C(=O)CN1c1ccccc1Cl` [Compound 35] cannot be ordered by pEC50: < 5.00 for the first, < 5.00 for the second.

Compared with `NC1=C(c2nccc(-c3ccc(O)c(O)c3)n2)C(=O)CN1CC1CCCC1` [Compound 65], `NC1=C(c2ccnc(-c3ccc(O)c(O)c3)n2)C(=O)CN1CC1CCCC1` [Compound 79] is higher in pEC50: 5.00 to 5.30 for the first, > 5.30 for the second.

`COc1ccc(-c2ccc(C3=C(N)N(c4ccccc4Cl)CC3=O)cn2)cc1OC` [Compound 58] and `COc1ccc(-c2cncc(C3=C(N)N(c4ccccc4Cl)CC3=O)c2)cc1OC` [Compound 7] cannot be ordered by pEC50: < 5.00 for the first, < 5.00 for the second.

Going from `COC1CC(Oc2cc(-c3cncc(C4=C(N)N(CC5CCCC5)CC4=O)n3)ccc2O)C1` (centres unmarked) [Compound 118] to `NC1=C(c2cncc(-c3ccc(O)c(OC4CC(O)C4)c3)n2)C(=O)CN1CC1CCCC1` (centres unmarked) [Compound 111], the pEC50 rises from < 5.00 to > 5.30. The second is the more potent here.

`NC1=C(c2cncc(-c3ccc(O)c(O)c3)c2)C(=O)CN1CC1CCNC1` (centres unmarked) [Compound 60] and `NC1=C(c2cncc(-c3ccc(O)c(O)c3)c2)C(=O)CN1CC1CCOC1` (centres unmarked) [Compound 51] cannot be ordered by pEC50: < 5.00 for the first, < 5.00 for the second.

`NC1=C(c2cncc(-c3ccc(O)c(O)c3)n2)C(=O)CN1c1ncncc1Cl` [Compound 120] and `NC1=C(c2cc(-c3ccc(O)c(O)c3)ncn2)C(=O)CN1c1ccccc1Cl` [Compound 72] cannot be ordered by pEC50: < 5.00 for the first, < 5.00 for the second.

Compared with `NC1=C(c2cncc(-c3ccc(O)c(O)c3)c2)C(=O)CN1CCC(F)(F)F` [Compound 95], `NC1=C(c2cncc(-c3ccc(O)c(O)c3)n2)C(=O)CN1CC1CC(F)(F)C1` [Compound 104] is higher in pEC50: < 5.00 for the first, 5.00 to 5.30 for the second. The second is the more potent here.

`COc1ccc(-c2cccc(C3=C(N)N(CCC(F)(F)F)CC3=O)n2)cc1OC` [Compound 93] and `COc1ccc(-c2cccc(C3=C(N)N(CC4CCCC4)CC3=O)n2)cc1OC` [Compound 80] cannot be ordered by pEC50: < 5.00 for the first, < 5.00 for the second.

`NC1=C(c2cncc(-c3ccc(O)c(O)c3)n2)C(=O)CN1CC1CCOC1` (centres unmarked) [Compound 41] and `NC1=C(c2cncc(-c3ccc(O)c(OCCO)c3)n2)C(=O)CN1CC1CCCC1` [Compound 103] cannot be ordered by pEC50: < 5.00 for the first, < 5.00 for the second.

Compared with `NC1=C(c2nccc(-c3ccc(O)c(O)c3)n2)C(=O)CN1c1ccccc1F` [Compound 74], `COc1ccc(-c2cncc(C3=C(N)N(c4ccccc4F)CC3=O)n2)cc1OC` [Compound 4] is higher in pEC50: < 5.00 for the first, 5.00 to 5.30 for the second.

`CC(C)CN1CC(=O)C(c2cncc(-c3ccc4c(c3)n(C)c(=O)n4C)n2)=C1N` [Compound 27] and `COc1ccc(-c2cncc(C3=C(N)N(CC4CCN(C)C4)CC3=O)n2)cc1OC` (centres unmarked) [Compound 52] cannot be ordered by pEC50: < 5.00 for the first, < 5.00 for the second.

Going from `NC1=C(c2cncc(-c3ccc(O)c(OC4CCC4)c3)n2)C(=O)CN1CC1CCCC1` [Compound 67] to `CNCCOc1cc(-c2cncc(C3=C(N)N(CC4CCCC4)CC3=O)n2)ccc1O` [Compound 107], the pEC50 rises from < 5.00 to > 5.30.

Compared with `NC1=C(c2cccc(-c3ccc(O)c(O)c3)n2)C(=O)CN1CC1CCCC1` [Compound 81], `NC1=C(c2cccc(-c3ccc(O)c(O)c3)n2)C(=O)CN1CC1CCNC1` (centres unmarked) [Compound 86] is lower in pEC50: > 5.30 for the first, < 5.00 for the second. The first is the more potent here.

`COc1ccc(-c2cncc(C3=C(N)N(c4cccc(Cl)c4Cl)CC3=O)n2)cc1OC` [Compound 63] was tested, and the pEC50 was 5.00 to 5.30.
